Reference: patent publication US6642217B2, “Triterpenes having human antifungal and antiyeast activity” (Naturtek, LLC, priority 2000, dated 2003)

Columns and labels:
Microsporum canis [1] = experiment: Direct addition method, solid compound in Sabouraud dextrose agar; format: cell-based; design: key: +++: Maximum Fungal Growth; ++: Moderate Fungal Growth; +: Minimum Fungal Growth; +/−: Very little Fungal Growth; −: No Fungal Growth; conditions: 4 mg/mL of agar; 12th day after inoculation
Procedure: (§1) Direct addition method. Sabouraud dextrose agar was prepared according to the manufacturer's instructions and 5.0 ml was dispensed in each 100×25 mm tube. The tubes were autoclaved. To each tube containing 5.0 ml of liquid agar at 45° C., 20 mg of solid test compound was added, to give a final concentration of 4 mg/ml. The agar was solidified in slants. The fungal cultures were then innoculated. The slants were incubated at 25-28 ° C. for 10-12 days, and the growth of the fungus was recorded every second day. The results in Table 2 indicate growth at the 12th day of inoculation.

Pityrosporum ovale [2] = experiment: as above; format: cell-based; design: key: +++: Maximum Fungal Growth; ++: Moderate Fungal Growth; +: Minimum Fungal Growth; +/−: Very little Fungal Growth; −: No Fungal Growth; conditions: 4 mg/mL of agar; 12th day after inoculation
Procedure: as §1

Trichophyton rubrum [3] = experiment: as above; format: cell-based; design: key: +++: Maximum Fungal Growth; ++: Moderate Fungal Growth; +: Minimum Fungal Growth; +/−: Very little Fungal Growth; −: No Fungal Growth; conditions: 4 mg/mL of agar; 12th day after inoculation
Procedure: as §1

Epidermophyton floccosum [4] = experiment: as above; format: cell-based; design: key: +++: Maximum Fungal Growth; ++: Moderate Fungal Growth; +: Minimum Fungal Growth; +/−: Very little Fungal Growth; −: No Fungal Growth; conditions: 4 mg/mL of agar; 12th day after inoculation
Procedure: as §1

Pityrosporum ovale [5] = experiment: Direct addition into the Pityrosporum agar; format: cell-based; design: key to Pityrosporum ovale growth: +++: Maximum Growth; ++: Moderate Growth; +: Minimum Growth; +/−: Very Little Growth; −: No Growth; conditions: for Pityrosporum ovale growth: 4 mg/ml in the agar, 18 hours after inoculation
Procedure: as §1, with “The slants were incubated at 25-28 ° C. for 10-12 days, and the growth of the fungus was recorded every second day. The results in Table 2 indicate growth at the 12th day of inoculation.” left out

P. ovale = experiment: Summary of anti-fungal assays (direct addition, agar dilution, liquid culture); format: cell-based, Pityrosporum ovale; conditions: stated in words (Tables 1a/1b, text to Table 5)
Procedure: (§2) This example summarizes the results of various other assays of the anti-fungal activity of betulin derivatives. Table 5 summarizes results using different assay methods—direct addition, agar dilution, and direct addition to liquid culture, as disclosed in the previous three Examples. In some cases, only one type of assay was done with a compound. In other cases, the compound was tested by multiple assays.

Microsporum audouinii = experiment: as above; format: cell-based; conditions: stated in words (Tables 1a/1b, text to Table 5)
Procedure: as §2

Microsporum audouinni [6] = experiment: Direct addition method, solid compound in Sabouraud dextrose agar; format: cell-based, Microsporum audouinii; design: key to Fungal growth: +++: Maximum Fungal Growth; ++: Moderate Fungal Growth; +: Minimum Fungal Growth; +/−: Very little Fungal Growth; −: No Fungal Growth; conditions: for Fungal growth: 4 mg/mL of agar, 12th day after inoculation
Procedure: as §1

Microsporum gypseum = experiment: Agar dilution method, growth on Sabouraud dextrose agar slants; format: cell-based; design: key: +++: Maximum Fungal Growth; ++: Moderate Fungal Growth; +: Minimum Fungal Growth; +/−: Very little Fungal Growth; −: No Fungal Growth; conditions: 12th day after inoculation
Procedure: (§3) Agar dilution method. Sabouraud Dextrose Agar (Difco Laboratories, Michigan) was prepared according to the manufacturer's instructions. Five ml was dispensed in a 100×25 mm tube and autoclaved. To each tube containing 5.0 ml of liquid agar at 45° C., 0.5, 0.25, 0.12, or 0.063 ml of a DMSO solution of the compound was added to give the final indicated concentrations in Table 2. The agar was then solidified in slants. Fungal cultures were inoculated. The slants were incubated at 25-28° C. for 10-12 days, and the growth of the fungus was recorded every second day.

Microsporum canis [7] = experiment: as above; format: cell-based; design: key: +++: Maximum Fungal Growth; ++: Moderate Fungal Growth; +: Minimum Fungal Growth; +/−: Very little Fungal Growth; −: No Fungal Growth; conditions: 12th day after inoculation
Procedure: as §3

Pityrosporum ovale [8] = experiment: as above; format: cell-based; design: key: +++: Maximum Fungal Growth; ++: Moderate Fungal Growth; +: Minimum Fungal Growth; +/−: Very little Fungal Growth; −: No Fungal Growth; conditions: 12th day after inoculation
Procedure: as §3

Trichophyton rubrum [9] = experiment: as above; format: cell-based; design: key: +++: Maximum Fungal Growth; ++: Moderate Fungal Growth; +: Minimum Fungal Growth; +/−: Very little Fungal Growth; −: No Fungal Growth; conditions: 12th day after inoculation
Procedure: as §3

Trichophyton tonsuran = experiment: as above; format: cell-based, Trichophyton tonsurans; design: key: +++: Maximum Fungal Growth; ++: Moderate Fungal Growth; +: Minimum Fungal Growth; +/−: Very little Fungal Growth; −: No Fungal Growth; conditions: 12th day after inoculation
Procedure: as §3

Epidermophyton floccosum [10] = experiment: as above; format: cell-based; design: key to Fungal growth: +++: Maximum Fungal Growth; ++: Moderate Fungal Growth; +: Minimum Fungal Growth; +/−: Very little Fungal Growth; −: No Fungal Growth; conditions: 12th day after inoculation
Procedure: as §3

Microsporum audouinni [11] = experiment: as above; format: cell-based, Microsporum audouinii; design: key: +++: Maximum Fungal Growth; ++: Moderate Fungal Growth; +: Minimum Fungal Growth; +/−: Very little Fungal Growth; −: No Fungal Growth; conditions: 12th day after inoculation
Procedure: as §3

Trichophyton tonsurans = experiment: Summary of anti-fungal assays (direct addition, agar dilution, liquid culture); format: cell-based; conditions: stated in words (Tables 1a/1b, text to Table 5)
Procedure: as §2

[12] = tested on: Trichophyton mentagrophyte; experiment: Agar dilution method, growth on Sabouraud dextrose agar slants; format: cell-based, Trichophyton mentagrophytes; design: key to Fungal growth: +++: Maximum Fungal Growth; ++: Moderate Fungal Growth; +: Minimum Fungal Growth; +/−: Very little Fungal Growth; −: No Fungal Growth; conditions: 12th day after inoculation
Procedure: as §3

Microsporum canis [13] = experiment: Direct addition method, solid compound in Sabouraud dextrose agar; format: cell-based; conditions: against Microsporum canis
Procedure: as §1

CC(C)C(N)C(=O)OC1CCC2(C)C(CCC3(C)C2CCC2C4C5OCC4(CCC5(C)C)CCC23C)C1(C)C [Allobetulin-3-L-valine]
Fungal growth (Microsporum canis [1]): +
Fungal growth (Pityrosporum ovale [2]): −
Fungal growth (Trichophyton rubrum [3]): +
Fungal growth (Epidermophyton floccosum [4]): −
Growth inhibition of Pityrosporum ovale by the direct addition method (Pityrosporum ovale [5]; 4 mg/ml): inhibited the growth
Pityrosporum ovale growth (Pityrosporum ovale [5]): +
Active against Pityrosporum ovale (P. ovale): Pityrosporum ovale
Active against Microsporum audouinii (Microsporum audouinii): Microsporum audouinii
Fungal growth (Microsporum audouinni [6]): −
best anti-fungal or anti-yeast activity by the direct addition method (Microsporum audouinni [6]; against Microsporum audouinii): against Microsporum audouinii

CC1(C)CCC23CCC4(C)C(CCC5C6(C)CCC(OC(=O)CCCC(=O)O)C(C)(C)C6CCC54C)C2C1OC3 (stereo not shown) [Allobetulin-3-glutarate]
Fungal growth (Microsporum gypseum; 12.5 μg/ml): +++
Fungal growth (Microsporum gypseum; 25 μg/ml): ++
Fungal growth (Microsporum gypseum; 50 μg/ml): ++
Fungal growth (Microsporum gypseum; 100 μg/ml): −
Fungal growth (Microsporum canis [7]; 12.5 μg/ml): +
Fungal growth (Microsporum canis [7]; 25 μg/ml): +/−
Fungal growth (Microsporum canis [7]; 50 μg/ml): −
Fungal growth (Microsporum canis [7]; 100 μg/ml): −
Fungal growth (Pityrosporum ovale [8]; 12.5 μg/ml): +++
Fungal growth (Pityrosporum ovale [8]; 25 μg/ml): +++
Fungal growth (Pityrosporum ovale [8]; 50 μg/ml): +|
Fungal growth (Pityrosporum ovale [8]; 100 μg/ml): −
Fungal growth (Trichophyton rubrum [9]; 12.5 μg/ml): ++
Fungal growth (Trichophyton rubrum [9]; 25 μg/ml): ++
Fungal growth (Trichophyton rubrum [9]; 50 μg/ml): +
Fungal growth (Trichophyton rubrum [9]; 100 μg/ml): −
Fungal growth (Trichophyton tonsuran; 12.5 μg/ml): +
Fungal growth (Trichophyton tonsuran; 25 μg/ml): +/−
Fungal growth (Trichophyton tonsuran; 50 μg/ml): −
Fungal growth (Trichophyton tonsuran; 100 μg/ml): −
Fungal growth (Microsporum canis [1]): +
Fungal growth (Pityrosporum ovale [2]): −
Fungal growth (Trichophyton rubrum [3]): +
Fungal growth (Epidermophyton floccosum [4]): −
Fungal growth (Epidermophyton floccosum [10]; 12.5 μg/ml): ++
Fungal growth (Epidermophyton floccosum [10]; 25 μg/ml): +
Fungal growth (Epidermophyton floccosum [10]; 50 μg/ml): +
Fungal growth (Epidermophyton floccosum [10]; 100 μg/ml): −
Fungal growth (Microsporum audouinni [11]; 12.5 μg/ml): +
Fungal growth (Microsporum audouinni [11]; 25 μg/ml): +/−
Fungal growth (Microsporum audouinni [11]; 50 μg/ml): −
Fungal growth (Microsporum audouinni [11]; 100 μg/ml): −
Pityrosporum ovale growth (Pityrosporum ovale [5]): +
Active against Microsporum audouinii (Microsporum audouinii): Microsporum audouinii
Active against Trichophyton tonsurans (Trichophyton tonsurans): Trichophyton tonsurans
Fungal growth (Microsporum audouinni [6]): +
Fungal growth ([12]; 12.5 μg/ml): ++
Fungal growth ([12]; 25 μg/ml): +
Fungal growth ([12]; 50 μg/ml): +
Fungal growth ([12]; 100 μg/ml): −

C=C(C)C1CCC2(COC(=O)CCC(=O)O)CC[C@@]3(C)C(CCC4[C@@]5(C)CCC(OC(=O)CCC(=O)O)C(C)(C)C5CC[C@]43C)C12 (stereo partly shown) [Betulin-3,28-disuccinate]
Fungal growth (Microsporum gypseum; 125 μg/ml): ++
Fungal growth (Microsporum gypseum; 250 μg/ml): +
Fungal growth (Microsporum gypseum; 500 μg/ml): +
Fungal growth (Microsporum gypseum; 1000 μg/ml): −
Fungal growth (Microsporum canis [7]; 125 μg/ml): ++
Fungal growth (Microsporum canis [7]; 250 μg/ml): +
Fungal growth (Microsporum canis [7]; 500 μg/ml): +
Fungal growth (Microsporum canis [7]; 1000 μg/ml): −
Fungal growth (Pityrosporum ovale [8]; 125 μg/ml): +++
Fungal growth (Pityrosporum ovale [8]; 250 μg/ml): +++
Fungal growth (Pityrosporum ovale [8]; 500 μg/ml): +++
Fungal growth (Pityrosporum ovale [8]; 1000 μg/ml): +
Fungal growth (Trichophyton rubrum [9]; 125 μg/ml): ++
Fungal growth (Trichophyton rubrum [9]; 250 μg/ml): +
Fungal growth (Trichophyton rubrum [9]; 500 μg/ml): +
Fungal growth (Trichophyton rubrum [9]; 1000 μg/ml): −
Fungal growth (Trichophyton tonsuran; 125 μg/ml): ++
Fungal growth (Trichophyton tonsuran; 250 μg/ml): +
Fungal growth (Trichophyton tonsuran; 500 μg/ml): +
Fungal growth (Trichophyton tonsuran; 1000 μg/ml): −
Fungal growth (Microsporum canis [1]): −
Fungal growth (Pityrosporum ovale [2]): −
Fungal growth (Trichophyton rubrum [3]): +
Fungal growth (Epidermophyton floccosum [4]): −
Fungal growth (Epidermophyton floccosum [10]; 125 μg/ml): ++
Fungal growth (Epidermophyton floccosum [10]; 250 μg/ml): +
Fungal growth (Epidermophyton floccosum [10]; 500 μg/ml): +
Fungal growth (Epidermophyton floccosum [10]; 1000 μg/ml): −
Fungal growth (Microsporum audouinni [11]; 125 μg/ml): +
Fungal growth (Microsporum audouinni [11]; 250 μg/ml): −
Fungal growth (Microsporum audouinni [11]; 500 μg/ml): −
Fungal growth (Microsporum audouinni [11]; 1000 μg/ml): −
Pityrosporum ovale growth (Pityrosporum ovale [5]): +
Active against Microsporum audouinii (Microsporum audouinii; listed as Betulin-3.28-di-succinate): Microsporum audouinii,
best anti-fungal or anti-yeast activity by the direct addition method (Microsporum canis [13]): against Microsporum canis
Fungal growth (Microsporum audouinni [6]): +
Fungal growth ([12]; 125 μg/ml): ++
Fungal growth ([12]; 250 μg/ml): +
Fungal growth ([12]; 500 μg/ml): +
Fungal growth ([12]; 1000 μg/ml): −

C=C(C)C1CCC2(COC(=O)c3ccccc3C(=O)O)CCC3(C)C(CCC4C5(C)CCC(O)C(C)(C)C5CCC43C)C12 (stereo not shown) [Betulin-28-phthalate]
Fungal growth (Microsporum gypseum; 12.5 μg/ml): +++
Fungal growth (Microsporum gypseum; 25 μg/ml): ++
Fungal growth (Microsporum gypseum; 50 μg/ml): ++
Fungal growth (Microsporum gypseum; 100 μg/ml): −
Fungal growth (Microsporum canis [7]; 12.5 μg/ml): ++
Fungal growth (Microsporum canis [7]; 25 μg/ml): +
Fungal growth (Microsporum canis [7]; 50 μg/ml): −
Fungal growth (Microsporum canis [7]; 100 μg/ml): −
Fungal growth (Pityrosporum ovale [8]; 12.5 μg/ml): +++
Fungal growth (Pityrosporum ovale [8]; 25 μg/ml): +++
Fungal growth (Pityrosporum ovale [8]; 50 μg/ml): ++
Fungal growth (Pityrosporum ovale [8]; 100 μg/ml): −
Fungal growth (Trichophyton rubrum [9]; 12.5 μg/ml): ++
Fungal growth (Trichophyton rubrum [9]; 25 μg/ml): +
Fungal growth (Trichophyton rubrum [9]; 50 μg/ml): +
Fungal growth (Trichophyton rubrum [9]; 100 μg/ml): −
Fungal growth (Trichophyton tonsuran; 12.5 μg/ml): ++
Fungal growth (Trichophyton tonsuran; 25 μg/ml): +
Fungal growth (Trichophyton tonsuran; 50 μg/ml): −
Fungal growth (Trichophyton tonsuran; 100 μg/ml): −
Fungal growth (Epidermophyton floccosum [10]; 12.5 μg/ml): +++
Fungal growth (Epidermophyton floccosum [10]; 25 μg/ml): ++
Fungal growth (Epidermophyton floccosum [10]; 50 μg/ml): +
Fungal growth (Epidermophyton floccosum [10]; 100 μg/ml): −
Fungal growth (Microsporum audouinni [11]; 12.5 μg/ml): ++
Fungal growth (Microsporum audouinni [11]; 25 μg/ml): +
Fungal growth (Microsporum audouinni [11]; 50 μg/ml): −
Fungal growth (Microsporum audouinni [11]; 100 μg/ml): −
Active against Microsporum audouinii (Microsporum audouinii): Microsporum audouinii
Active against Trichophyton tonsurans (Trichophyton tonsurans): Trichophyton tonsurans
Fungal growth ([12]; 12.5 μg/ml): +++
Fungal growth ([12]; 25 μg/ml): ++
Fungal growth ([12]; 50 μg/ml): +
Fungal growth ([12]; 100 μg/ml): −
